In patent EP0123157B1, “Medicaments and/or foodstuff concentrates with an anti-bacterial activity” (EGIS GYOGYSZERGYAR, priority 1983, dated 1984) one finds MIC data, which are given here for three compounds.

In brackets after ≈: the same amount, converted by molar mass. Like-named read-outs stand apart in the source and are kept apart here.

What all share (assay): Minimum inhibitory concentration (MIC) in vitro in broth containing phenol red and glucose
What all share (format): cell-based

One test relates to Staphylococcus aureus. The note with it: read-out: Werte der Mindesthemmkonzentration [MIC-Werte]. The source says: (§1) Die Mindesthemmkonzentration (MIC-Werte) der Kombination der 3 obigen Wirkstoffe und der einzelnen obigen Wirkstoffe wurden in vitro gegen die Bakterienstämme Escherichia coli 494, Bordatella bronchiseptica, Staphylococcus aureus und Listeria monocytogenes in einer Phenolrot und Glucose enthaltenden Brühe [Hersteller: Firma Difca] bestimmt.

A further test deals with Listeria monocytogenes. The note with it: read-out: Werte der Mindesthemmkonzentration [MIC-Werte].
Source text: as §1

Test [1] has as its system Bordatella bronchiseptica. The conditions noted are these: read-out: Werte der Mindesthemmkonzentration [MIC-Werte].
Source text: as §1

The test system of test [2] is Gegen Chloramphenicol resistenter Stamm Escherichia coli 494. The conditions noted are these: single substance; inhibits bacterial growth for 24 hours; chloramphenicol-resistant Escherichia coli 494; read-out: Werte der Mindesthemmkonzentration [MIC-Werte].
Source text: as §1

The mark [3] stands for this setting: single substance, inhibits bacterial growth for 24 hours.
[4] abbreviates: single substance, inhibits bacterial growth for 24 hours, Bordatella bronchiseptica.

In the case of `Cc1ccc2c(Cl)cc(Cl)c(O)c2n1` [Chlorchinaldol, 2-(Methyl)-5,7-di-(chlor)-8-(hydroxy)-chinolin], the MIC stood at 5 µg/mL (≈ 21.9 µM) with Staphylococcus aureus (setting [3]), 5 µg/mL (≈ 21.9 µM) in the test on Listeria monocytogenes (setting [3]), 5 µg/mL (≈ 21.9 µM) in test [1] (setting [4]) and 200 µg/mL (≈ 877 µM) in test [2].
`CN(C)CCCN1c2ccccc2Sc2ccc(Cl)cc21` [Chlorpromazin, 2-Chlor-10-[3-(dimethylamino)-propyl]-phenothiazin]: the MIC was 25 µg/mL (≈ 78.4 µM) in the test with Staphylococcus aureus (24 h), 25 µg/mL (≈ 78.4 µM) with Listeria monocytogenes (24 h), 200 µg/mL (≈ 627 µM) in test [1] (24 h) and 50 µg/mL (≈ 157 µM) in test [2].
Regarding `COc1cc(Cc2cnc(N)nc2N)cc(OC)c1OC` [Trimethoprim, 2,4-Diamino-5-[3', 4', 5'-tri-(methoxy)-benzyl]-pyrimidin], the MIC with Staphylococcus aureus (setting [3]) was 100 µg/mL (≈ 344 µM); in the test on Listeria monocytogenes (setting [3]), 50 µg/mL (≈ 172 µM); in test [1] (setting [4]), 50 µg/mL (≈ 172 µM); in test [2], 25 µg/mL (≈ 86.1 µM).
